Measured values as given in US8957093B2, “N-biphenylmethylindole modulators of PPARG” (The Scripps Research Institute, priority 2011, dated 2015).
Where two headings read alike, the source gives them in different places.

Biological target: GST-PPARG-LBD (Homo sapiens (Human), UniProt P37231)
Experiment: Lanthascreen PPARG competitive binding assay (Invitrogen, TR-FRET)
Conditions: NA = not active, inc = incomplete curve; for IC50: read-out: IC50 (nM) Lantha
Experimental: Lanthascreen PPARG Competitive Binding Assay (Invitrogen)
The assay was performed according to manufacturer protocol. A mixture of […], 5 nM Tb-GST-antibody, 5 nM Fluormone Pan-PPAR Green, and serial dilutions of the experimental compound, beginning at 10 μM downwards, was added to wells of black 384-well low-volume plates (Greiner) to a total volume of 18 μL. All dilutions were made in TR-FRET assay buffer C. DMSO at 2% final concentration was used as a no-ligand control. Experiment was performed in triplicate, and incubated for 2 hours in the dark prior to assay read in Perkin Elmer ViewLux ultra HTS microplate reader. FRET signal was measured by excitation at 340 nm and emission at 520 nm for fluorescein and 490 nm for terbium. Fold change over DMSO was calculated using GraphPad Prism Software (La Jolla, Calif.) by calculating 520 nm/490 nm ratio. Graphs were plotted as fold change of FRET signal for compound treatment over DMSO-only control.

[1] = Lanthascreen competitive binding
[2] = Lanthascreen PPARG competitive binding

Chain of GST-PPARG-LBD (P37231 238-503): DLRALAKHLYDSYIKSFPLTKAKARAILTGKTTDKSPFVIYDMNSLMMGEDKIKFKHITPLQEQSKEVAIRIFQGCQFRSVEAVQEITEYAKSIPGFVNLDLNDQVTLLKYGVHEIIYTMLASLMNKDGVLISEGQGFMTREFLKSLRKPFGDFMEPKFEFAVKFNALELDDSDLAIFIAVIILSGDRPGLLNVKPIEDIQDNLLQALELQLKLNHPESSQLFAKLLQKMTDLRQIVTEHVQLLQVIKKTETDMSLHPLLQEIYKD

Row | Compound | IC50 [1] | other results
1 | CCC(NC(=O)c1ccc2c(ccn2Cc2ccccc2-c2ccccc2C(=O)O)c1)c1ccccc1 (stereo not shown) [Example 68, 2′-((5-((1-phenylpropyl)carbamoyl)-1H-indol-1-yl)methyl)-[1,1′-biphenyl]-2-carboxylic acid] | > 1000 nM | –
2 | Cc1c(C)n(Cc2ccc(-c3ccccc3C(=O)O)cc2)c2ccc(C(=O)NCc3cccc(CN)c3)cc12 [Example 82, 4′-((5-(3-(aminomethyl)benzylcarbamoyl)-2,3-dimethyl-1H-indol-1-yl)methyl)biphenyl-2-carboxylic acid] | > 1000 nM | –
3 | Cc1c(C)n(Cc2ccc(-c3ccccc3C(=O)O)cc2)c2ccc(C(=O)N[C@@H](C)c3ccc(N)cc3)cc12 [Example 99, (S)-4′-((5-(1-(4-aminophenyl)ethylcarbamoyl)-2,3-dimethyl-1H-indol-1-yl)methyl)biphenyl-2-carboxylic acid] | 240 nM | –
4 | Cc1c(C)n(Cc2ccc(-c3ccccc3C(=O)O)cc2)c2ccc(C(=O)NCc3ccc(C(F)(F)F)cc3)cc12 [Example 101, 4′-((2,3-dimethyl-5-(4-(trifluoromethyl)benzylcarbamoyl)-1H-indol-1-yl)methyl)biphenyl-2-carboxylic acid] | 208 nM | –
5 | COc1ccc(CNC(=O)c2ccc3c(c2)c(C)c(C)n3Cc2ccc(-c3ccccc3C(=O)O)cc2)cc1 [Example 104, 4′-((5-(4-methoxybenzylcarbamoyl)-2,3-dimethyl-1H-indol-1-yl)methyl)biphenyl-2-carboxylic acid] | 7 nM | –
6 | COc1ccc(CNC(=O)c2ccc3c(c2)c(C)c(C)n3Cc2ccc(-c3ccccc3C(=O)O)cc2)cc1F [Example 111, 4′-((5-(3-fluoro-4-methoxybenzylcarbamoyl)-2,3-dimethyl-1H-indol-1-yl)methyl)biphenyl-2-carboxylic acid] | 13 nM | –
7 | Cc1c(C)n(Cc2ccc(-c3ccccc3C(=O)O)cc2)c2ccc(C(=O)NCc3cccc4ccccc34)cc12 [Example 115, 4′-((2,3-dimethyl-5-(naphthalen-1-ylmethylcarbamoyl)-1H-indol-1-yl)methyl)biphenyl-2-carboxylic acid] | 64 nM | –
8 | CCC(NC(=O)c1ccc2c(c1)c(C)c(C)n2Cc1ccccc1-c1cccc(C(=O)O)c1)c1ccccc1 (stereo not shown) [Example 126, 2′-((2,3-Dimethyl-5-((1-phenylpropyl)carbamoyl)-1H-indol-1-yl)methyl)-[1,1′-biphenyl]-3-carboxylic acid] | 99 nM | –
9 | Cc1cn(Cc2ccc(-c3ccccc3C(=O)O)cc2)c2ccc(C(=O)N[C@@H](C)c3ccc(Br)cc3)cc12 [Example 132, (S)-4′-((5-((1-(4-Bromophenyl)ethyl)carbamoyl)-3-methyl-1H-indol-1-yl)methyl)-[1,1′-biphenyl]-2-carboxylic acid] | 24 nM | –
10 | COc1c(F)cccc1[C@H](C)NC(=O)c1ccc2c(c1)c(C)c(C)n2Cc1ccc(-c2ccccc2C(=O)O)cc1 [Example 177, (S)-4′-((5-((1-(3-fluoro-2-methoxyphenyl)ethyl)carbamoyl)-2,3-dimethyl-1H-indol-1-yl)methyl)-[1,1′-biphenyl]-2-carboxylic acid] | 21 nM | –
11 | Cc1c(C)n(Cc2ccc(-c3ccccc3C#N)cc2)c2ccc(C(=O)N[C@@H](C)c3ccc(C(C)(C)C)cc3)cc12 [Example 184, (S)—N-(1-(4-(tert-butyl)phenyl)ethyl)-1-((2′-cyano-[1,1′-biphenyl]-4-yl)methyl)-2,3-dimethyl-1H-indole-5-carboxamide] | – | IC50 (nM) Lantha [1]: ^2inc^
12 | Cc1c(C)n(Cc2ccc(-c3ccccc3C#N)cc2)c2ccc(C(=O)N[C@@H](C)c3cccc(C(C)(C)C)c3)cc12 [Example 185, (S)—N-(1-(3-(tert-butyl)phenyl)ethyl)-1-((2′-cyano-[1,1′-biphenyl]-4-yl)methyl)-2,3-dimethyl-1H-indole-5-carboxamide] | – | IC50 (nM) Lantha [1]: inc
13 | Cc1c(C)n(Cc2ccc(-c3ccccc3C#N)cc2)c2ccc(C(=O)N[C@@H](C)c3ccc(C(C)C)cc3)cc12 [Example 186, (S)-1-((2′-cyano-[1,1′-biphenyl]-4-yl)methyl)-N-(1-(4-isopropylphenyl)ethyl)-2,3-dimethyl-1H-indole-5-carboxamide] | – | IC50 (nM) Lantha [1]: inc
14 | CC[C@H](NC(=O)c1ccc2c(ccn2Cc2ccccc2-c2ccc(C(=O)O)cc2)c1)c1ccccc1 [Example 189, (S)-2′-((5-((1-phenylpropyl)carbamoyl)-1H-indol-1-yl)methyl)-[1,1′-biphenyl]-4-carboxylic acid] | 100 nM | –
15 | Cc1c(C)n(Cc2ccc(-c3ccccc3C(=O)O)cc2)c2ccc(C(=O)N[C@H](C)c3c(F)cncc3F)cc12 [Example 215, (R)-4′-((5-((1-(3,5-difluoropyridin-4-yl)ethyl)carbamoyl)-2,3-dimethyl-1H-indol-1-yl)methyl)-[1,1′-biphenyl]-2-carboxylic acid] | 309 nM | –
16 | Cc1c(C)n(Cc2ccc(-c3ccccc3C#N)cc2)c2ccc(C(=O)N[C@@H](C)c3cccc(C(C)C)c3)cc12 [Example 242, (S)-1-((2′-cyano-[1,1′-biphenyl]-4-yl)methyl)-N-(1-(3-isopropylphenyl)ethyl)-2,3-dimethyl-1H-indole-5-carboxamide] | – | IC50 (nM) Lantha [1]: inc
17 | Cc1c(C)n(Cc2ccc(-c3ccccc3S(=O)(=O)NC(C)(C)C)cc2)c2ccc(C(=O)N[C@@H](C)c3cccc(C(C)C)c3)cc12 [Example 246, (S)-1-((2′-(N-(tert-butyl)sulfamoyl)-[1,1′-biphenyl]-4-yl)methyl)-N-(1-(3-isopropylphenyl)ethyl)-2,3-dimethyl-1H-indole-5-carboxamide] | > 1000 nM | –
18 | Cc1c(C)n(Cc2ccc(-c3ccccc3S(N)(=O)=O)cc2)c2ccc(C(=O)N[C@@H](C)c3cccc(C(C)C)c3)cc12 [Example 247, (S)—N-(1-(3-isopropylphenyl)ethyl)-2,3-dimethyl-1-((2′-sulfamoyl-[1,1′-biphenyl]-4-yl)methyl)-1H-indole-5-carboxamide] | > 1000 nM | –
19 | CC(=O)NS(=O)(=O)c1ccccc1-c1ccc(Cn2c(C)c(C)c3cc(C(=O)N[C@@H](C)c4cccc(C(C)C)c4)ccc32)cc1 [Example 248, (S)-1-((2′-(N-acetylsulfamoyl)-[1,1′-biphenyl]-4-yl)methyl)-N-(1-(3-isopropylphenyl)ethyl)-2,3-dimethyl-1H-indole-5-carboxamide] | > 1000 nM | –
20 | Cc1c(C)n(Cc2ccc(-c3ccccc3C(=O)O)cc2)c2ccc(C(=O)N[C@@H](C)c3ccccc3OC(F)(F)F)cc12 [Example 256, (S)-4′-((2,3-dimethyl-5-(1-(2-(trifluoromethoxy)phenyl)ethylcarbamoyl)-1H-indol-1-yl)methyl)biphenyl-2-carboxylic acid] | 38 nM | –
21 | Cc1c(C)n(Cc2ccc(-c3ccccc3C(=O)O)cc2)c2ccc(C(=O)N[C@@H](C)c3ccc(S(C)(=O)=O)cc3)cc12 [Example 258, (S)-4′-((2,3-dimethyl-5-(1-(4-(methylsulfonyl)phenyl)ethylcarbamoyl)-1H-indol-1-yl)methyl)biphenyl-2-carboxylic acid] | 636 nM | –
22 | Cc1c(C)n(Cc2ccc(-c3ccccc3C(=O)O)cc2)c2ccc(C(=O)N[C@@H](C)c3cc(Cl)ccn3)cc12 [Example 265, (S)-4′-((5-((1-(4-chloropyridin-2-yl)ethyl)carbamoyl)-2,3-dimethyl-1H-indol-1-yl)methyl)-[1,1′-biphenyl]-2-carboxylic acid] | 4 nM | –
23 | Cc1c(C)n(Cc2ccc(-c3ccccc3C(=O)O)cc2)c2ccc(C(=O)N[C@H](C)c3ccc(S(C)(=O)=O)cc3)cc12 [Example 276, (R)-4′-((2,3-dimethyl-5-(1-(4-(methylsulfonyl)phenyl)ethylcarbamoyl)-1H-indol-1-yl)methyl)biphenyl-2-carboxylic acid] | – | IC50 [2]: 11 nM
24 | Cc1c(C)n(Cc2ccc(-c3ccccc3C#N)cc2)c2ccc(C(=O)N[C@@H](C)c3ccc(C(F)(F)F)cc3)cc12 [Example 277, (S)-1-((2′-cyano-[1,1′-biphenyl]-4-yl)methyl)-2,3-dimethyl-N-(1-(4-(trifluoromethyl)phenyl)ethyl)-1H-indole-5-carboxamide] | – | IC50 (nM) Lantha [2]: inc
25 | Cc1c(C)n(Cc2ccc(-c3ccccc3C#N)cc2)c2ccc(C(=O)N[C@@H](C)c3ccc(OC(C)C)cc3)cc12 [Example 278, (S)-1-((2′-cyano-[1,1′-biphenyl]-4-yl)methyl)-N-(1-(4-isopropoxyphenyl)ethyl)-2,3-dimethyl-1H-indole-5-carboxamide] | – | IC50 [2]: 808 nM
26 | Cc1c(C)n(Cc2ccc(-c3ccccc3C#N)cc2)c2ccc(C(=O)N[C@@H](C)c3ccc(OC(F)(F)F)cc3)cc12 [Example 279, (S)-1-((2′-cyano-[1,1′-biphenyl]-4-yl)methyl)-2,3-dimethyl-N-(1-(4-(trifluoromethoxy)phenyl)ethyl)-1H-indole-5-carboxamide] | – | IC50 (nM) Lantha [2]: inc
27 | CCOc1cccc([C@H](C)NC(=O)c2ccc3c(c2)c(C)c(C)n3Cc2ccc(-c3ccccc3C#N)cc2)c1 [Example 280, (S)-1-((2′-cyano-[1,1′-biphenyl]-4-yl)methyl)-N-(1-(3-ethoxyphenyl)ethyl)-2,3-dimethyl-1H-indole-5-carboxamide] | – | IC50 (nM) Lantha [2]: inc
28 | Cc1c(C)n(Cc2ccc(-c3ccccc3C#N)cc2)c2ccc(C(=O)N[C@@H](C)c3cccc(Cl)c3)cc12 [Example 281, (S)—N-(1-(3-chlorophenyl)ethyl)-1-((2′-cyano-[1,1′-biphenyl]-4-yl)methyl)-2,3-dimethyl-1H-indole-5-carboxamide] | – | IC50 (nM) Lantha [2]: inc
